Columns and labels:
HSPDE4A4-EGFP [1] = molecular target: T1, HSPDE4A4-EGFP (Homo sapiens, UniProt P27815); experiment: Spot formation in CHO cells transfected with HSPDE4A4-EGFP; type: cell-based
T1 construct: expressed in transfected cells
Method: Chinese hamster ovary cells (CHO), are transfected with the plasmids described in Example 1 above using the transfection agent FuGENE™ 6 (Boehringer Mannheim Corp, USA) according to the method recommended by the suppliers. Stable transfectants are selected using 1 mg/ml G418 sulphate (Calbiochem) in the growth medium (HAM's F12 nutrient mix with Glutamax-1, 10% foetal bovine serum (FBS), 100 μg penicillin-streptomycin mixture ml^−1 (GibcoBRL, supplied by Life Technologies, Denmark). Cell are cultured at 37° C. in 100% humidity and conditions of normal atmospheric gases supplemented with 5% CO2.
For fluorescence microscopy, cells are allowed to adhere to Lab-Tek chambered coverglasses (Nalge Nunc International, Naperville USA) for at least 24 hours and are then cultured to about 80% confluence. Cells can also be grown in plastic 96-well plates (Polyfiltronics Packard 96-View Plate or Costar Black Plate, clear bottom; both types tissue culture treated) for imaging purposes. Prior to experiments, the cells are cultured over night without G418 sulphate in HAM F-12 medium with glutamax, 100 μg penicillin-streptomycin mixture ml^−1 and 10% FBS. This medium has low autofluorescence enabling fluorescence microscopy of cells straight from the incubator. For certain tests requiring medium of defined composition, particularly with regard to the presence of specific cell growth factors, the HAM's culture medium is replaced prior to imaging with a buffered saline solution (KRW buffer) containing (in mM) 3.6 KCl, 140 NaCl, 2 NaHCO3, 0.5 NaH2PO4, 0.5 MgSO4, 1.5 CaCl2, 10 Hepes, 5 glucose, pH7.4.
Changes in cellular distribution of a transfected probe can be imaged and quantified in an automated fashion. For this purpose cells are cultured to near 80% to 90% confluence in coverglass chambers or plastic 96-well plates, given the relevant treatment and allowed to respond. At the end of the response period, cells are fixed in 4% formaldehyde buffer (Lillies fixative buffer, pH7.0: Bie and Berntsen A/S, Denmark) for 30 minutes to 2 hours, then washed in phosphate buffered saline (PBS, Life Technologies, Denmark). Nuclear DNA is stained with 1 μM Hoechst 33258 (Molecular Probes, Eugene, Oreg., USA) in PBS for 10 minutes at 25° C., then washed twice in PBS. Automated images are collected on a Nikon Diaphot 300 (Nikon, Japan) using a Nikon Plan Fluor 20X/0.5NA objective lens. The basic microscope is fitted with a motorised specimen stage and motorised focus control (Prior Scientific, Fulbourn, Cambridge UK), excitation filter wheel (Sutter Instruments, Novato Calif. USA) and Photometrics PXL series camera with a KAF1400 CCD chip (Photometrics, Tucson, Ariz. USA), each of these items being under the control of an Macintosh 7200/90 computer (Apple Computer, Cupertino, Calif. USA). Automation of stage positioning, focus, excitation filter selection, and image acquisition is performed using macros written in-house, running under IPLab Spectrum for Macintosh (Scanalytics, Fairfax, Va. USA). Fluorescence illumination comes from a 100 W HBO lamp. Images are collected in pairs, the first using a 340/10 nm excitation filter, the second with a 475RDF40 excitation filter (Chroma, Brattleboro, Vt.). Both images are collected via the same dichroic and emission filters, which are optimised for EGFP applications (XF100 filter set, Omega Optical, Brattleboro, Vt.). While the choice of filters for imaging the nuclear stain (Hoechst 33258) is not well matched to that dye's spectral properties, resulting in lower image intensity, it greatly improves the throughput of the procedure by allowing both images to be collected using the same dichroic and emission filter. This eliminates any image registration problems and focus shifts which would result from using two different filter sets, which would require more steps in the acquisition procedure and more extensive image processing to overcome.

HSPDE4A1-EGFP = molecular target: T2, HSPDE4A1-EGFP (Homo sapiens, UniProt P27815); experiment: Competitive assay: reversal of Rolipram-induced spot dispersal, HSPDE4A1-EGFP CHO cells; type: cell-based; conditions: predicted
T2 construct: the ca. 1.95 kb coding region of HSPDE4A1 (GenBank Acc.no. U97584) is amplified; expressed in transfected cells
T2 sequence (P27815 1-647 isoform P27815-4): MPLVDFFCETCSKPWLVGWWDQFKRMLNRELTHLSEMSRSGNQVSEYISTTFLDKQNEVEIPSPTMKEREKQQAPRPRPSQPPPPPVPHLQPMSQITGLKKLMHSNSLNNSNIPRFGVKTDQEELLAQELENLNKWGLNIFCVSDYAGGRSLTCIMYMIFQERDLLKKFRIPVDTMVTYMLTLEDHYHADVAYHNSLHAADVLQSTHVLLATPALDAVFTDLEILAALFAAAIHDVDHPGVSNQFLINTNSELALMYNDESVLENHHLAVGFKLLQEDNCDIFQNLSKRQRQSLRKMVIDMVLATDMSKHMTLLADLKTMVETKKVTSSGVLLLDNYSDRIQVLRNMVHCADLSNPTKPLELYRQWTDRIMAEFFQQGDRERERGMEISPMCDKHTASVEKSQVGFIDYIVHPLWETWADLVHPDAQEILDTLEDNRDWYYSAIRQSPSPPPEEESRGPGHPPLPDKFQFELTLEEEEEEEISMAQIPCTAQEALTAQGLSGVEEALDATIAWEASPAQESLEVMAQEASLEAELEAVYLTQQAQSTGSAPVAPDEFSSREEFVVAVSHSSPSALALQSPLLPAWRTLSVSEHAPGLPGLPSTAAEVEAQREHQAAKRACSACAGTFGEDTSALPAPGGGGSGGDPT

PDE4 = conditions: yes/no; cited from earlier work
[2] = human, in vivo; cited from earlier work
HSPDE4A4-ΔLR2-EGFP = molecular target: T3, HSPDE4A4-ΔLR2-EGFP (Homo sapiens, UniProt P27815, DEL313-320); experiment: Spot formation in CHO cells transfected with HSPDE4A4-ΔLR2-EGFP; type: cell-based; conditions: 30 to 0.01 μM
T3 construct: expressed in transfected cells
T3 sequence (P27815 with tags, fused parts or gaps DEL313-320): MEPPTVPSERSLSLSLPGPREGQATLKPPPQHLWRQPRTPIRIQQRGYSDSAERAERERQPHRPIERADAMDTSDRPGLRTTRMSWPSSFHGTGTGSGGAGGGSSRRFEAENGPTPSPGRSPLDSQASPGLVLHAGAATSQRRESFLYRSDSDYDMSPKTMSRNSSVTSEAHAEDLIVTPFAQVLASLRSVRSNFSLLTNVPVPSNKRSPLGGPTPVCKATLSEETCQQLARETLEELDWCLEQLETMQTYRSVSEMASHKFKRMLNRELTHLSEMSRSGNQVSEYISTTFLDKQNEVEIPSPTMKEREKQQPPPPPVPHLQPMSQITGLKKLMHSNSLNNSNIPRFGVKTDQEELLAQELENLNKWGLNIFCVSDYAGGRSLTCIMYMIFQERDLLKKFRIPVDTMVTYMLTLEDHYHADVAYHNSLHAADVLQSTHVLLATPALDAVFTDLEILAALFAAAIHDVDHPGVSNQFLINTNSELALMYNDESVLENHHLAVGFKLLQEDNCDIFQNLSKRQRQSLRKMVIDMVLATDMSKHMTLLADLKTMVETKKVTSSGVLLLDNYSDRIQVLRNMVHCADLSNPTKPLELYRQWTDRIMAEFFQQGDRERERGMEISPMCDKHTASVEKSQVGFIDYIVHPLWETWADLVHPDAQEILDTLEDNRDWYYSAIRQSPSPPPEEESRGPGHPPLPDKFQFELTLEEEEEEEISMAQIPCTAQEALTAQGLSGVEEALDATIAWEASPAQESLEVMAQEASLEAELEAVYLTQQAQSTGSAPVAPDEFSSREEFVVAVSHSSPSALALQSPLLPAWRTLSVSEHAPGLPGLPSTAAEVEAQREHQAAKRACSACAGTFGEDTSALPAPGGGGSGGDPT
Method: Stably transfected (non-clonal) cells are allowed to adhere to chambered coverglasses in HAM's F12 medium containing 10% FBS.
(§1) The cells are then fixed with 4% formaldehyde buffer (pH7) for 1 hour, washed with PBS and stained with 1 μM Hoechst 33258 in PBS for 10 minutes at 25° C., then washed twice in PBS. Automated images are collected and analysed for the number of spots per cell as described in Example 2.

HSPDE4A4-EGFP [3] = molecular target: T1, HSPDE4A4-EGFP; experiment: Dispersal of preformed Rolipram-induced spots, HSPDE4A4-EGFP CHO cells; type: cell-based; conditions: yes/no
Method: For the microscopic assessment of spot dispersal, stably transfected (non-clonal) cells transfected with the HSPDE4A4-EGFP probe are allowed to adhere to chambered coverglasses in HAM's F12 medium containing 10% FBS. […] Chambered coverglasses are then transferred to a Zeiss 135 inverted microscope for time lapse imaging as described in Example 2, above. At a given point after starting an experiment, a mixture of IBMX and forskolin is added to give final concentrations of 1 mM and 50 μM, respectively. Images are captured at regular intervals to form a time lapse sequence of the response, also as described in Example 2.
The plate is then run in the FLIPR system at 37° C., with addition of IBMX and forskolin to all wells at final concentrations of 500 μM and 50 μM respectively after the first minute. The experiment is continued for a further 45 minutes, readings being taken at intervals of 1 minute.
Non-clonal CHO cells stably transfected with the HSPDE4A4-EGFP probe are allowed to adhere to chambered coverglasses in HAM's F12 medium containing 10% FBS and to grow for 24 hours.
Clonal CHO cells stably transfected with the HSPDE4A4-EGFP probe are allowed to adhere to chambered coverglasses in HAM's F12 medium containing 10% FBS and to grow for 5 days without change of medium, which by this time is serum-depleted.
Individual wells are then treated with either 50 μM forskolin plus 500 μM IBMX or 200 nM PMA plus 2 μM ionomycin.

HSPDE4A4-H506N-EGFP = molecular target: T4, HSPDE4A4-H506N-EGFP (Homo sapiens, UniProt P27815, H506N); experiment: Spot formation in CHO cells transfected with HSPDE4A4-H506N-EGFP; type: cell-based; conditions: clonal cells, over the concentrations tested
T4 construct: expressed in transfected cells
T4 sequence (P27815 whole entry H506N): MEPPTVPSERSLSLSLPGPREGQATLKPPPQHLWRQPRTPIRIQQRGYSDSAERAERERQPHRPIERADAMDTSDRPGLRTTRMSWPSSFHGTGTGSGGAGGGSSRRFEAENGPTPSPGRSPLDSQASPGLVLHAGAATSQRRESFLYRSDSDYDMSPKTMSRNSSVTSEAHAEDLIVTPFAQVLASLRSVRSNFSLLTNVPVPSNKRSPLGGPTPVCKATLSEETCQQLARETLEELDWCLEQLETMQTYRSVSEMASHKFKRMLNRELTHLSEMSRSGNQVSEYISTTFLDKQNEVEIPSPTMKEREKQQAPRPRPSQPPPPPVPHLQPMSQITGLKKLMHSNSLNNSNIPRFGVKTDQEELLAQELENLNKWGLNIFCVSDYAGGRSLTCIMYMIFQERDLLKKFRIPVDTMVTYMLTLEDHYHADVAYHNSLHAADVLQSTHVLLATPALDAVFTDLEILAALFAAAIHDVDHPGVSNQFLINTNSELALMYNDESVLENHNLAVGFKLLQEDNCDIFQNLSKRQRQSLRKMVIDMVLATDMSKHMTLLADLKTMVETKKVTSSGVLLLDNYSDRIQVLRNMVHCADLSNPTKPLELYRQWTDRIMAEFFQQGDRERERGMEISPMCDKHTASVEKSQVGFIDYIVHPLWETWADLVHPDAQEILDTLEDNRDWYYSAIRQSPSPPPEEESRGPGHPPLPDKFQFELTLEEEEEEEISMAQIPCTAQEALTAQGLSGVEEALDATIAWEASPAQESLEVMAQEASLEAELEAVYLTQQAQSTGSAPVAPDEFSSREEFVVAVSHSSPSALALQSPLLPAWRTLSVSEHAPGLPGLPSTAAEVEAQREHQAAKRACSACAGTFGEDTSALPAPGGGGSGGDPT
Method: as §1
as §1, with “Cells are grown in HAM's F12 medium plus 10% FBS plus various concentrations of inhibitors for 23.5 hours. The” for “The”

T1 sequence (P27815 whole entry): as the sequence (P27815 whole entry H506N) above, with N506H counted along it

Question: For `COc1ccc([C@]2(C#N)CC[C@@H](C(=O)O)CC2)cc1OC1CCCC1` [Ariflo®], which “formation of spots, compound alone (in words)” value (HSPDE4A4-EGFP [1]; observed up to 24 hours) is on record?
Answer: Its value is “does not by itself produce spots”.

Question: What about the “Formation of PDE4A4 spots” value (HSPDE4A4-EGFP [1]; yes/no) of the same compound?
Answer: The value was “no”.

Question: What about the “Reversal of Rolipram-induced removal of PDE4A1 spots (predicted, not tested)” value (HSPDE4A1-EGFP) of the same compound?
Answer: Its value is “yes”.

Question: What about the “Inhibition of PDE4 catalytic activity” value (PDE4) of the same compound?
Answer: The value was “yes”.

Question: And the Clinical effect [2]?
Answer: Its Clinical effect is “anti-”.

Question: And the Emesis [2]?
Answer: The Emesis was “no”.

Question: What about the “formation of spots, compound alone (in words)” value (HSPDE4A4-ΔLR2-EGFP) of the same compound?
Answer: The value was “does not by itself produce spots”.

Question: And the “Removal of Rolipram-induced PDE4A4-spots” value (HSPDE4A4-EGFP [3])?
Answer: Its value is “yes”.

Question: And the “spot formation response (in words)” value (HSPDE4A4-H506N-EGFP)?
Answer: The value was “does not by itself produce spots”.
